For 18 compounds, IC50 results are on record in patent US8575360B2, “Derivatives of 6,7-dihydro-5H-imidazo[1,2-a]imidazole-3-carboxylic acid amides” (Boehringer Ingelheim International GmbH, priority 2009, dated 2013).

As a reminder, the IC50 is the concentration at which inhibition is half-maximal. Lower therefore signals greater potency in that assay.

The target in this assay is T1, LFA-1 (CD18/CD11a) binding to ICAM-1 (Homo sapiens, UniProt P05107+P20701).
T1 construct: followed by purified LFA-1 (in buffer of 50 mM triethylamine, 150 mM NaCl, 1% beta octylglucoside)
T1 sequence (P20701 26-1170): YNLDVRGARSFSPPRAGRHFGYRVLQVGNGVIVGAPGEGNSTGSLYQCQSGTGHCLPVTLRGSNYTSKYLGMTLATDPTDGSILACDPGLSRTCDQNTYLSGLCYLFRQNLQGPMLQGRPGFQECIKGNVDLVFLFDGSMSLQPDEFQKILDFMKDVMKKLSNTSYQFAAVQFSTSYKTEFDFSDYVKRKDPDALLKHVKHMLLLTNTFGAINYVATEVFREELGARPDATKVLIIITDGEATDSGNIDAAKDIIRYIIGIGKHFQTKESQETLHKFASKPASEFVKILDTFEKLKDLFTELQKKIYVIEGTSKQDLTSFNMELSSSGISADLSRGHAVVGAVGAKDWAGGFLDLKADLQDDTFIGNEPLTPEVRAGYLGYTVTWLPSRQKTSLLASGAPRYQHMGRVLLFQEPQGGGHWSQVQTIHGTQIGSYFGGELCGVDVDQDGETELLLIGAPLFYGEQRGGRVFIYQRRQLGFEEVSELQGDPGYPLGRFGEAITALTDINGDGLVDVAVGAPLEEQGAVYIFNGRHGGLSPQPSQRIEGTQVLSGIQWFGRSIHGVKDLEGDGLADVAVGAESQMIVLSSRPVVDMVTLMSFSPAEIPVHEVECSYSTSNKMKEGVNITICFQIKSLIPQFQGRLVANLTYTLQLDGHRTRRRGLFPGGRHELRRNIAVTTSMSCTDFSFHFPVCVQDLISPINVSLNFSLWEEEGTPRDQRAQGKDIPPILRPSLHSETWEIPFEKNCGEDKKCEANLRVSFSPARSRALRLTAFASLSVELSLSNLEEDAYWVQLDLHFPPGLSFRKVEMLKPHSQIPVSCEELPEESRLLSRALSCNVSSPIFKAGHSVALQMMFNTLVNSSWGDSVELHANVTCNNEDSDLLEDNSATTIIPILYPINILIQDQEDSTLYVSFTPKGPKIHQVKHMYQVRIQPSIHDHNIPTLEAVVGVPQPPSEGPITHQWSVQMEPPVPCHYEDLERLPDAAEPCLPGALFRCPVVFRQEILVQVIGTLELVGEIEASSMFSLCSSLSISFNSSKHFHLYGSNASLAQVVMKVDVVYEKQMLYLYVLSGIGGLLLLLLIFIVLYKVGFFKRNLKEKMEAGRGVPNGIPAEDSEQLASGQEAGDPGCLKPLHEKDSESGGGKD
T1 sequence (P05107 23-769 partner): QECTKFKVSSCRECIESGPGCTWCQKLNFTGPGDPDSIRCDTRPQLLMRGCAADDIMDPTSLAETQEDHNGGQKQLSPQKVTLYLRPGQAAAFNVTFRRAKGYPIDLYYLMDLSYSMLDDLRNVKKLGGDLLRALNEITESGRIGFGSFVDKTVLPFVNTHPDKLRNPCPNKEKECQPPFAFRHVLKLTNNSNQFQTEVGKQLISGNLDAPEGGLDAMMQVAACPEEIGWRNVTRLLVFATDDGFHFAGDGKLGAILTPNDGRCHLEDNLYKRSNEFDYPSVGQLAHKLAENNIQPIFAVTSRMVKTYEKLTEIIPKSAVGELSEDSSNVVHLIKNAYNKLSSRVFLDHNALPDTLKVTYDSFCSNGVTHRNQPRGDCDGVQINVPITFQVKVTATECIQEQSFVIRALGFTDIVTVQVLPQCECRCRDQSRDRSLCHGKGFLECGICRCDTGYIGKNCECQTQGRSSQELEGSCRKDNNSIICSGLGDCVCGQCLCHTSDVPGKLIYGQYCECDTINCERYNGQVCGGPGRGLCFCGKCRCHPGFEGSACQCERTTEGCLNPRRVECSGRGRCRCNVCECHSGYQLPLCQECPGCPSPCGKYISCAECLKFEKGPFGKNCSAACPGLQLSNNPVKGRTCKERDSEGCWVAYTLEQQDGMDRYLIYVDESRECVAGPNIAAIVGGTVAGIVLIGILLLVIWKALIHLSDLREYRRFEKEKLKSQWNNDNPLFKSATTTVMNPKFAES
The assay can be described thus: LFA-1/Biotin-sICAM-1 AlphaScreen assay: inhibition of LFA-1 binding to ICAM-1. The settings on record: 37° C. 90 minutes, highest compound concentration 1 μM. The text has this: Assay to Determine Inhibition of LFA-1 Binding to ICAM-1
This assay protocol is designed to study the direct antagonism, by a test compound, of the interaction of ICAM-1 with the Leukointegrin CD18/CD11a (LFA-1).
The LFA-1/Biotin-sICAM-1 molecular assay measures the ability of test compounds to inhibit binding of LFA-1 to Biotinylated-sICAM using AlphaScreen technology (Ref: Wilson, J, Rossi, C P, Carboni, S, Fremaux, C, Perrin, D, Soto, C, Kosco-Vilbois, M, and Scheer, A: A Homogeneous 384-Well High-Throughput Binding Assay for a TNF Receptor Using Alphascreen Technology. J Biomol Screen 2003; 8:522-532) that uses TS2/4(anti-LFA-1)-custom conjugated AlphaLisa acceptor beads and streptavidin-coated donor beads from PerkinElmer. The assay was performed in white OptiPlates-384 in a volume of 60 μL using assay buffer (Dulbecco's PBS containing calcium and magnesium, 2 mM MgCl2, 0.1 mM PMSF, 0.1% BSA, pH 7.1). To each well, Biotin-sICAM was added followed by purified LFA-1 (in buffer of 50 mM triethylamine, 150 mM NaCl, 1% beta octylglucoside, 2 mM MgCl2 neutralized to pH with 1M Tris-HCl, pH 7.5). For compound testing, compound was added in 5 uL to the above in 25 uL. LFA-1 and Biotin-sICAM-1 were used at concentrations that would yield a signal to background ratio of 8-10. The highest concentration of compound was 1 μM in 1% DMSO. Positive controls were wells without compound containing LFA-1, while blanks were wells without both compound and LFA-1. Plates were mixed and incubated at 37° C. for 90 minutes. This was followed by addition of 15 μL/well TS2/4-conjugated acceptor beads diluted in PBS containing 0.1% BSA for a final concentration of 10 μg/mL. The plates were mixed and incubated in the dark for 30 minutes at room temperature followed by addition of 15 μL/well streptavidin-coated donor beads diluted in PBS containing 0.1% BSA at a final concentration of 15 μg/mL. The plates were mixed and incubated in the dark for 60 minutes at room temperature and then read on an EnVision Multilabel Reader using AlphaScreen 384-well OptiPlate protocol.
In general terms: Alpha assays give light when donor and acceptor beads are brought close together.
`C[C@@]1(Cc2ccc(C#N)cc2)C(=O)N(c2cc(Cl)cc(Cl)c2)c2ncc(C(=O)NC3(C(=O)NC4(c5ccc(-c6ccc(CO)cc6)cn5)CC4)CC3)n21` [Compound 136] returned a 50% inhibitory concentration (IC50) of 0.56 nM.

As for `C[C@@]1(Cc2ccc(C#N)cc2)C(=O)N(c2cc(Cl)cc(Cl)c2)c2ncc(C(=O)NC3(C(=O)NC4(c5ccc(-c6ccc(S(N)(=O)=O)cc6)cn5)CC4)CC3)n21` [Compound 132], the IC50 was found to be 0.72 nM.

For `C[C@@]1(Cc2ccc(C#N)cc2)C(=O)N(c2cc(Cl)cc(Cl)c2)c2ncc(C(=O)NC3(C(=O)NC4(c5ccc(-c6cccc(S(C)(=O)=O)c6)cn5)CC4)CC3)n21` [Compound 141], the IC50 was found to be 0.53 nM.

For `C[C@@]1(Cc2ccc(C#N)cc2)C(=O)N(c2cc(Cl)c(F)c(Cl)c2)c2ncc(C(=O)NC3(C(=O)NC4(c5ccc(-c6cccc(C(N)=O)c6)cn5)CC4)CC3)n21` [Compound 70], the IC50 is 0.8 nM.

On to `C[C@@]1(Cc2ccc(C#N)cc2)C(=O)N(c2cc(Cl)cc(Cl)c2)c2ncc(C(=O)NC3(C(=O)NC4(c5ccc(-c6ccc(O)cc6)cn5)CC4)CC3)n21` [Compound 135], for which the IC50 came out at 0.64 nM.

Regarding `Cc1n[nH]c(C)c1-c1ccc(C2(NC(=O)C3(NC(=O)c4cnc5n4[C@](C)(Cc4ccc(C#N)cc4)C(=O)N5c4cc(Cl)c(F)c(Cl)c4)CC3)CC2)nc1` [Compound 157], the IC50 worked out at 0.91 nM.

In turn, `C[C@@]1(Cc2ccc(C#N)cc2)C(=O)N(c2cc(Cl)c(F)c(Cl)c2)c2ncc(C(=O)NC3(C(=O)NC4(c5ccc(-c6ccc(CO)cc6)cn5)CC4)CC3)n21` [Compound 100] showed an IC50 of 1.3 nM.

As for `C[C@@]1(Cc2ccc(C#N)cc2)C(=O)N(c2cc(Cl)c(F)c(Cl)c2)c2ncc(C(=O)NC3(C(=O)NC4(c5ccc(-c6cccc(S(N)(=O)=O)c6)cn5)CC4)CC3)n21` [Compound 115], the IC50 was determined as 1.8 nM.

For `Cn1cc(-c2ccc(C3(NC(=O)C4(NC(=O)c5cnc6n5[C@](C)(Cc5ccc(C#N)cc5)C(=O)N6c5cc(Cl)c(F)c(Cl)c5)CC4)CC3)nn2)cn1` [Compound 35], the IC50 is 0.48 nM.

In turn, `C[C@@]1(Cc2ccc(C#N)cc2)C(=O)N(c2cc(Cl)c(F)c(Cl)c2)c2ncc(C(=O)NC3(C(=O)NC4(c5ccc(-c6ccc(CO)cc6)nn5)CC4)CC3)n21` [Compound 37] showed an IC50 of 0.89 nM.

With `C[C@@]1(Cc2ccc(C#N)cc2)C(=O)N(c2cc(Cl)cc(Cl)c2)c2ncc(C(=O)NC3(C(=O)NC4(c5ccc(-c6ccc(NS(C)(=O)=O)cc6)cn5)CC4)CC3)n21` [Compound 133], the IC50 was found to be 1.5 nM.

Regarding `Cc1ccc(-c2ccc(C3(NC(=O)C4(NC(=O)c5cnc6n5[C@](C)(Cc5ccc(C#N)cc5)C(=O)N6c5cc(Cl)cc(Cl)c5)CC4)CC3)nc2)cn1` [Compound 62], the IC50 was 1.1 nM.

`Cc1ccc(-c2ccc(C3(NC(=O)C4(NC(=O)c5cnc6n5[C@](C)(Cc5ccc(C#N)cc5)C(=O)N6c5cc(Cl)c(F)c(Cl)c5)CC4)CC3)nc2)cn1` [Compound 18] gave an IC50 of 1.4 nM.

`Cc1ccc(-c2cnc(C3(NC(=O)C4(NC(=O)c5cnc6n5[C@](C)(Cc5ccc(C#N)cc5)C(=O)N6c5cc(Cl)c(F)c(Cl)c5)CC4)CC3)nc2)cn1` [Compound 112] displayed an IC50 of 0.54 nM.

`Cc1nn(C)cc1-c1ccc(C2(NC(=O)C3(NC(=O)c4cnc5n4[C@](C)(Cc4ccc(C#N)cc4)C(=O)N5c4cc(Cl)c(F)c(Cl)c4)CC3)CC2)nc1` [Compound 123] registered an IC50 of 1.4 nM.

`C[C@@H](NC(=O)C1(NC(=O)c2cnc3n2[C@](C)(Cc2ccc(OC(F)(F)F)cc2)C(=O)N3c2cc(Cl)c(F)c(Cl)c2)CC1)c1ccc(-c2ccc(CO)nc2)cn1` [Compound 116] registered an IC50 of 1.3 nM.

Turning to `C[C@@]1(Cc2ccc(C#N)cc2)C(=O)N(c2cc(Cl)c(F)c(Cl)c2)c2ncc(C(=O)NC3(C(=O)NC4(c5ccc(-c6ccncc6)cn5)CC4)CC3)n21` [Compound 68], the IC50 turned out to be 0.6 nM.

Consider `C[C@@]1(Cc2ccc(C#N)cc2)C(=O)N(c2cc(Cl)cc(Cl)c2)c2ncc(C(=O)NC3(C(=O)NC4(c5ccc(-c6cn[nH]c6)cn5)CC4)CC3)n21` [Compound 129], for which the IC50 worked out at 0.22 nM.
